Assay type in all cases: biochemical
For one experiment, the target named is T1, PI3Kβ (Homo sapiens, UniProt P42338).
T1 construct: His tag (C); made in house; host or cells: Tn5 insect cells, baculovirus BV949 (vector LR280)
Kind of experiment: PI3K KinaseGlo assay, PI3Kbeta. The following applies: 25 nM enzyme, 1 μM ATP, 30 mins.

The target of the next experiment is T2, PI3Kδ (Homo sapiens, UniProt O00329).
T2 construct: His tag (C); made in house; host or cells: Tn5 insect cells, baculovirus BV1060 (vector LR415)
T2 sequence (O00329 with tags, fused parts or gaps): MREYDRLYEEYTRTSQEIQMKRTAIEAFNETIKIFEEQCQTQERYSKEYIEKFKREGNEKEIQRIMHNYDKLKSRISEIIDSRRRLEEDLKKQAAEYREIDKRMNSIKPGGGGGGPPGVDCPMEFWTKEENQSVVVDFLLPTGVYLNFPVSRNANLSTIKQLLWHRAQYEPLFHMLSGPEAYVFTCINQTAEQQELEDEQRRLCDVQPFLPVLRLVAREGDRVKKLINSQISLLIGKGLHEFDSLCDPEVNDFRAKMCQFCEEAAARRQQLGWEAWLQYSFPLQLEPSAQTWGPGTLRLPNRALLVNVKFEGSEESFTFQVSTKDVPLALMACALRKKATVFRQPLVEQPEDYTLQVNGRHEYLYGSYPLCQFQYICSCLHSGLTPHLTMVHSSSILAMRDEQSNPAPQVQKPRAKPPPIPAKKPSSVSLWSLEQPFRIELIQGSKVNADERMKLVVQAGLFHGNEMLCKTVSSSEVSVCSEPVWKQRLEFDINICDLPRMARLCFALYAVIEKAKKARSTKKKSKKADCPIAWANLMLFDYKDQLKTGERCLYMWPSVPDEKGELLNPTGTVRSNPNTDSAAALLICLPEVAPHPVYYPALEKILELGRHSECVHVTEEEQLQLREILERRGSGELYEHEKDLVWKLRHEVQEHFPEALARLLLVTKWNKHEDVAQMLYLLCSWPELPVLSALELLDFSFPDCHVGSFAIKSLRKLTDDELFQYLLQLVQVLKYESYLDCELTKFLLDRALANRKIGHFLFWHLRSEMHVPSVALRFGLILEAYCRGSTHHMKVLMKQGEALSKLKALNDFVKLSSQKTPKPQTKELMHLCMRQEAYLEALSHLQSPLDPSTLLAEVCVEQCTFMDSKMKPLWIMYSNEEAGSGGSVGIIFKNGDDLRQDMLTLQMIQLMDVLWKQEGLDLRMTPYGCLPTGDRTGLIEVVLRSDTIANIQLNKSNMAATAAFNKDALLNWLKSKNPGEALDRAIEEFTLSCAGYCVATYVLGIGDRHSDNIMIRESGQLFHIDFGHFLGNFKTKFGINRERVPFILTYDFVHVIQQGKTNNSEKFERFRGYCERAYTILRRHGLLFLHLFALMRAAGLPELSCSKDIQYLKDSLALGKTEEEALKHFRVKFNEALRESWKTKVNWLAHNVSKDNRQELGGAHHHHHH
The experiment in a line: PI3K KinaseGlo assay, PI3Kdelta. The following applies: 10 nM enzyme, 1 μM ATP, 30 mins.

The target of the next experiment is T3, PI3Kα (Homo sapiens, UniProt P42336).
T3 construct: His tag (C); made in house; host or cells: Tn5 insect cells, baculovirus BV-1075
T3 sequence (P42336 with tags, fused parts or gaps): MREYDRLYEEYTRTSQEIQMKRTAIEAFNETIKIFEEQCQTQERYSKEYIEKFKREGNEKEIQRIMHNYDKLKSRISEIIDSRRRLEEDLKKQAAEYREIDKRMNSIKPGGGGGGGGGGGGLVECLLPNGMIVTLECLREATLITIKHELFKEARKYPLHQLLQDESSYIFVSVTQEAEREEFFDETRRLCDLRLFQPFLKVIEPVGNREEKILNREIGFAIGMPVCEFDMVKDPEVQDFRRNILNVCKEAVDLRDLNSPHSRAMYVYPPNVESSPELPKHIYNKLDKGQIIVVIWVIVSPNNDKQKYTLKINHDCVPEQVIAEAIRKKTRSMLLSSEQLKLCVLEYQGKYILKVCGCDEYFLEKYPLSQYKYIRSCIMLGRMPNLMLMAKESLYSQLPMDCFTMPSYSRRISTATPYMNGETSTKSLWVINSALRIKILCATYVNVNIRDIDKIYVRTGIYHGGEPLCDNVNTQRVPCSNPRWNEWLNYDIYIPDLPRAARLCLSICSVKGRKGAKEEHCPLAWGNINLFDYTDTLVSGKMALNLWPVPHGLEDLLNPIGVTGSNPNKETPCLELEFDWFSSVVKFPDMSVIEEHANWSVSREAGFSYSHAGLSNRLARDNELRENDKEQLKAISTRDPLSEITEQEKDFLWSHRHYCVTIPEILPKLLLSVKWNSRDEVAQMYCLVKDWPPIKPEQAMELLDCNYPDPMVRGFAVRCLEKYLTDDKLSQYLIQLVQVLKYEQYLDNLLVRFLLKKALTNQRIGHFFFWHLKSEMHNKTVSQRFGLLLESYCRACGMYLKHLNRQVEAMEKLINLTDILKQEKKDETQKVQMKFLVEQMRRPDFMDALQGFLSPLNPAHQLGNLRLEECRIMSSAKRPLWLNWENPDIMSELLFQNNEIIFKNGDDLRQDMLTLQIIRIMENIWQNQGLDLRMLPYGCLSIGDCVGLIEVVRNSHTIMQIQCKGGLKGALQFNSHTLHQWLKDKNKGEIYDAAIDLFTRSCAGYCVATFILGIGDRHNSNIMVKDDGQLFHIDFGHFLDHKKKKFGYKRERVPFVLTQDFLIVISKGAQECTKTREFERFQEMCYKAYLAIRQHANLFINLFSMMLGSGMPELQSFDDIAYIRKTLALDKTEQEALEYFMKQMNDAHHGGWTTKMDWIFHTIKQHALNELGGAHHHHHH
Kind of experiment: PI3K KinaseGlo assay, PI3Kalpha. The following applies: 10 nM enzyme, 1 μM ATP, 30 mins. For orientation: In Kinase-Glo more light means more ATP remaining.

T1 sequence (P42338 with tags, fused parts or gaps): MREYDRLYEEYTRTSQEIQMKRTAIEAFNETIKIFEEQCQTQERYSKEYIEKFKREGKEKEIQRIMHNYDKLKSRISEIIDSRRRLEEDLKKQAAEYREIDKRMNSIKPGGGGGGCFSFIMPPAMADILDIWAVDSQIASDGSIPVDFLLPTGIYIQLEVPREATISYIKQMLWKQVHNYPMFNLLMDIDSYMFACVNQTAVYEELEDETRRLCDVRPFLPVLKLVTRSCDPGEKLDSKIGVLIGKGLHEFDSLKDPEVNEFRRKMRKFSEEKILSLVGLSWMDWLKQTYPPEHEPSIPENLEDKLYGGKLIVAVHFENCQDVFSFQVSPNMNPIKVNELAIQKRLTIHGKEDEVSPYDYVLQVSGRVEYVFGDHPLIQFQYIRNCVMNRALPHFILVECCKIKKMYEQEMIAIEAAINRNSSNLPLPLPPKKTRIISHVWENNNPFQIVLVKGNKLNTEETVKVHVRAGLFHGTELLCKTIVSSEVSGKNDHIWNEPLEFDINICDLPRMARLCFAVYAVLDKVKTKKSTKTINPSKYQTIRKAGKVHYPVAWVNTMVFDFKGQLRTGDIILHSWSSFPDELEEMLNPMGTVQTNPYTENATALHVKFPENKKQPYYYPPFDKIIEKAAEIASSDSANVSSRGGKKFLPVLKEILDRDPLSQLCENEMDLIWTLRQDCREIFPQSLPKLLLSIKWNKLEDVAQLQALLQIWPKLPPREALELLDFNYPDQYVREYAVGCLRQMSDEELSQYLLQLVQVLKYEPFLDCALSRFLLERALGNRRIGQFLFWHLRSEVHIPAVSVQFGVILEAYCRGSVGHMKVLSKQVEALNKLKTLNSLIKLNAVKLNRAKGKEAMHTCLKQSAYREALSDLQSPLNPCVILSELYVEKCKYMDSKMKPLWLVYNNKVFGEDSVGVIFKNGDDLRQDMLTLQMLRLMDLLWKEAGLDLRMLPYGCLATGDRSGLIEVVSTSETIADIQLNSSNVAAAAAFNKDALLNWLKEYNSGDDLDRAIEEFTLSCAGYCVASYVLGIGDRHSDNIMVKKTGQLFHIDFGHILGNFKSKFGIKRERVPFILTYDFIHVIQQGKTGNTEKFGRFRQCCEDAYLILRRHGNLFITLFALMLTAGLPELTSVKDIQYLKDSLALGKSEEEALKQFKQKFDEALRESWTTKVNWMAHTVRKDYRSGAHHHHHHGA

Usually IC50 stands for the point on the concentration scale where inhibition reaches its midpoint. Read a low IC50 as higher potency. Regarding `CC(=O)NC[C@@H]1CCN(C(=O)Nc2nc3c(s2)-c2nc(C(C)(C)C)ncc2CC3)[C@@H]1C(N)=O` [Example 36, (2S,3S)-3-(Acetylamino-methyl)-pyrrolidine-1,2-dicarboxylic acid 2-amide 1-[(8-tert-butyl-4,5-dihydro-thiazolo[4,5-h]quinazolin-2-yl)-amide]], the values for the IC50 against PI3Kβ, on PI3Kδ and against PI3Kα were 510 nM, 40 nM and 12 nM, respectively.

Consider `CC(C)(C)c1ncc2c(n1)-c1sc(NC(=O)N3CC[C@@H](CN4CCOCC4)[C@H]3C(N)=O)nc1CC2` [Example 37, (2S,3S)-3-Morpholin-4-ylmethyl-pyrrolidine-1,2-dicarboxylic acid 2-amide 1-[(8-tert-butyl-4,5-dihydro-thiazolo[4,5-h]quinazolin-2-yl)-amide]], for which the IC50 on PI3Kβ is 182 nM; against PI3Kδ it was 19 nM; against PI3Kα it was 4 nM.

With `CC(C)(C)c1ncc2c(n1)-c1sc(NC(=O)N3CC[C@@H](O)[C@H]3C(N)=O)nc1CC2` [Example 38, (2S,3R)-3-Hydroxy-pyrrolidine-1,2-dicarboxylic acid 2-amide 1-[(8-tert-butyl-4,5-dihydro-thiazolo[4,5-h]quinazolin-2-yl)-amide]], the IC50 is 866 nM against PI3Kβ, 44 nM against PI3Kδ and 9 nM against PI3Kα.

Take `CC(C)(C)c1nc2c(s1)CCc1nc(NC(=O)N3CC[C@@H](CN4CCOCC4)[C@H]3C(N)=O)sc1-2` [Example 41, (2S,3S)-3-Morpholin-4-ylmethyl-pyrrolidine-1,2-dicarboxylic acid 2-amide 1-[(7-tert-butyl-4,5-dihydro-benzo[1,2-d;3,4-d′]bisthiazol-2-yl)-amide]]: the results for the IC50 at PI3Kβ, against PI3Kδ and against PI3Kα were 3050 nM, 496 nM and 24 nM, respectively.

Turning to `COC[C@@H]1CCN(C(=O)Nc2nc3c(s2)-c2nc(C(C)(C)C)ncc2CC3)[C@@H]1C(N)=O` [Example 42, (2S,3R)-3-Methoxymethyl-pyrrolidine-1,2-dicarboxylic acid 2-amide 1-[(8-tert-butyl-4,5-dihydro-thiazolo[4,5-h]quinazolin-2-yl)-amide]], the figures for the IC50 on PI3Kβ, on PI3Kδ and against PI3Kα were 409 nM, 32 nM and 8 nM, respectively.

As to `COC[C@@H]1CCN(C(=O)Nc2nc3c(s2)-c2nc(C(C)(C)C(F)(F)F)ncc2CC3)[C@@H]1C(N)=O` [Example 45, (2S,3R)-3-Methoxymethyl-pyrrolidine-1,2-dicarboxylic acid 2-amide 1-{[8-(2,2,2-trifluoro-1,1-dimethyl-ethyl)-4,5-dihydro-thiazolo[4,5-h]quinazolin-2-yl]-amide}], the IC50 against PI3Kβ came to 61 nM; on PI3Kδ, 24 nM; against PI3Kα, 6.5 nM.

Turning to `C[C@@H]1CCN(C(=O)Nc2nc3c(s2)-c2cc(C(C)(C)C)ncc2OC3)[C@@H]1C(N)=O` [Example 46, (2S,3R)-3-Methyl-pyrrolidine-1,2-dicarboxylic acid 2-amide 1-[(8-tert-butyl-4H-5-oxa-1-thia-3,7-diaza-cyclopenta[a]naphthalen-2-yl)-amide]], the IC50 worked out at 1150 nM against PI3Kβ, 157 nM against PI3Kδ and 5.5 nM at PI3Kα.

Consider `CN(C)C[C@@H]1CCN(C(=O)Nc2nc3c(s2)-c2cc(C(C)(C)C)ncc2OC3)[C@@H]1C(N)=O` [Example 47, (2S,3S)-3-Dimethylaminomethyl-pyrrolidine-1,2-dicarboxylic acid 2-amide 1-[(8-tert-butyl-4H-5-oxa-1-thia-3,7-diaza-cyclopenta[a]naphthalen-2-yl)-amide]], for which the figures for the IC50 at PI3Kβ, on PI3Kδ and on PI3Kα were 6170 nM, 1620 nM and 3 nM, respectively.

On to `C[C@@H]1CCN(C(=O)Nc2nc3c(s2)-c2cc(C(C)(C)C(F)(F)F)ncc2OC3)[C@@H]1C(N)=O` [Example 48, (2S,3R)-3-Methyl-pyrrolidine-1,2-dicarboxylic acid 2-amide 1-{[8-(2,2,2-trifluoro-1,1-dimethyl-ethyl)-4H-5-oxa-1-thia-3,7-diaza-cyclopenta[a]naphthalen-2-yl]-amide}], for which the IC50 was found to be 920 nM on PI3Kβ, 19 nM against PI3Kδ and 6 nM against PI3Kα.

Values taken from patent publication US8357707B2, “2-carboxamide cycloamino ureas” (Novartis AG, priority 2009, dated 2013).
